Test results from patent publication US20170305882A1, “BENZYL SUBSTITUTED INDAZOLES AS BUB1 KINASE INHIBITORS” (Bayer Pharma Aktiengesellschaft, priority 2014, published 2017).
Structures can show the parent of a compound that is named as a salt. Where two headings read alike, the source gives them in different places.

What was measured:
[1] = target: T1, (recombinant) catalytic domain of human Bub1 (amino acids 704-1085) (Homo sapiens, UniProt O43683); assay: Equilibrium probe competition assay (TR-FRET kinase binding assay); details: read-out: IC50 (Assay 5, probe competition)
T1 construct: catalytic domain of human Bub1 (amino acids 704-1085); 6xHis (N); made in house; host or cells: Hi5 insect cells
Excerpt: Equilibrium Probe Competition Assay:
Bub1 binding affinity of compounds described in the present invention were quantified using a time-resolved fluorescence energy transfer (TR-FRET) kinase binding assay which measures displacement of the synthetic fluorescent probe 5-[({2-[2-({2-[1-(4-ethoxy-2,6-difluorobenzyl)-1H-indazol-3-yl]-4-(pyridin-4-ylamino)pyrimidin-5-yl}oxy)ethoxy]ethyl}carbamothioyl)amino]-2-(6-hydroxy-3-oxo-3H-xanthen-9-yl)benzoic acid (5-5-1) by the (recombinant) catalytic domain of human Bub1 (amino acids 704-1085). The enzyme was expressed in Hi5 insect cells with N-terminal 6×His/AviTag@ seqences, purified by affinity-(Ni-NTA) and size exclusion chromatography and site-specific biotinylated ex-vivo using a commercially available kit (Avidity).
In a typical assay 11 different concentrations of each compound (0.1 nM, 0.33 nM, 1.1 nM, 3.8 nM, 13 nM, 44 nM, ˜0.15 μM, ˜0.51 μM, ˜1.7 μM, 5.9 μM and 20 μM) were tested in duplicate within the same microtiter plate. To this end, 100-fold concentrated compound solutions (in DMSO) were made by serial dilution (1:3.4) of freshly prepared 2 mM stocks in a clear low volume 384-well source microtiter plate (Greiner Bio-One, Frickenhausen, Germany), from which 50 nl of compounds were transferred into a black low volume test microtiter plate from the same supplier. Subsequently 2 μL of a solution containing biotinylated Bub1 (the final concentration of Bub1 was adjusted depending on the activity of the enzyme lot in order to be within the linear dynamic range of the assay: typically ˜200 pM were used) and 1 nM Streptavidin Terbium Cryptate (Cisbio, No. 610SATLB) in aqueous assay buffer [50 mM Tris/HCl pH 7.5, 200 mM potassium chloride (KCl), 1.0 mM dithiothreitol (DTT), 0.1 mM sodium ortho-vanadate, 1% (v/v) glycerol, 0.01% (w/v) bovine serum albumine (BSA), 0.005% (v/v) Triton X-100 (Sigma), were added to the compounds in the test plate and the mixture was incubated for 15 min at 22′C to allow pre-equilibration of the putative enzyme-inhibitor complexes before the start of the probe competition reaction, which was initiated by the addition of 3 μL 1.67-fold concentrated solution (in assay buffer) of 5-5-1 (final concentration: 1.5 nM). The resulting mixture (5 μL final volume) was Incubated at 220 during 0, 15, 30, 60, 120, 240 and 1440 min. After each time point the resonance energy transfer from the Streptavidin Tb cryptate to the 3′,6′-dihydroxy-3H-spiro[2-benzofuran-1,9′-xanthen]-3-one moiety of 5-5-1 was measured in order to quantify the amount of fluorescent probe displaced by the test compounds. To this end, the fluorescence emissions at 520 nm and 490 nm after excitation at 330-350 nm were measured in a Pherastar FS TR-FRET plate reader, (BMG Lab technologies, Offenburg, Germany) and the ratio of the emissions (520 nm/490 nm) was taken as Indicator for the amount of Bub1/5-5-1 equilibrium complexes. The data were normalized using two sets of control wells for high-(=enzyme reaction without inhibitor=0%=Minimum inhibition) and low-(=all assay components without enzyme=100%=Maximum inhibition) Bub1 activity. IC50 values were calculated by fitting the normalized inhibition data to a 4-parameter logistic equation (Minimum, Maximum, IC50, Hill; Y=Max+(Min−Max)/(1+(X/IC50)Hill)).

[2] = Stability in buffer at various pH values (HPLC detection); type: physicochemical; details: for recovery at 60 min, 0.2 mg/mL / recovery at 120 min, 0.2 mg/mL / recovery at 240 min, 0.2 mg/mL / recovery at 1440 min, 0.2 mg/mL: read-out: Recovery (Assay 6, prodrug stability); for Stability pH4: % Test Compound after 4 h [F(t = 4 h) × 100/F(t = 0 h)]: pH 4, 4 h; for Stability pH4: % Test Compound after 4 h [F(t = 4 h) × 100/F(t = 0 h)] / Stability pH7.4: % Test Compound after 4 h [F(t = 4 h) × 100/F(t = 0 h)]: 37° C., prodrug remaining; for Stability pH7.4: % Test Compound after 4 h [F(t = 4 h) × 100/F(t = 0 h)]: pH 7.4, 4 h
Description: Stability in Buffer at Various pH Values (HPLC Detection)
0.3 mg of the test compound was solved in 0.1 ml dimethylsulfoxide and 0.4 ml acetonitrile. For complete dissolution the HPLC vial with the sample solution was sonified for about 20 seconds. Then 1.0 ml of the respective buffer solution was added and the sample was again treated in the ultrasonic bath.
Buffer Solutions Used: • pH 4.0: Fluka buffer, Order No. 33643 (11.76 g citric acid, 2.57 g sodium chloride and 2.72 g sodium hydroxide)
pH 7.4: 90 g of sodium chloride, 13.61 g of potassium dihydrogen phosphate and 83.35 g of 1 M sodium hydroxide solution were made up to 1 L with Millipore water and then diluted 1:10.
10 μl portions of the sample solution were analysed by HPLC at different times (0 h, 1 h, 2 h, 4 h and 24 h) at 37° C. The peak areas in percentage were used for quantification.
Agilent 1100 with DAD (G1315B), binary pump (G1312A), autosampler (G1329A), column oven (G1316A), thermostat (G1330B); column: Kromasil 100 C18, 250 mm×4 mm, 5 μm; column temperature: 37° C.; eluent A: water+5 ml of perchloric acid/litre, eluent B: acetonitrile.
The ratios of the peak area (F) at different times in relation to the peak area at the starting point are shown in Table 3 for representative examples: […]

Row | Structure (SMILES) | IC50 ([1]; Time 15 min) [nM] | IC50 ([1]; Time 30 min) [nM] | IC50 ([1]; Time 60 min) [nM] | IC50 ([1]; Time 90 min) [nM] | IC50 ([1]; Time 120 min) [nM] | IC50 ([1]; Time 240 min) [nM] | IC50 ([1]; Time 1440 min) [nM] | recovery at 60 min, 0.2 mg/mL [2] [%] | recovery at 120 min, 0.2 mg/mL [2] [%] | recovery at 240 min, 0.2 mg/mL [2] [%] | recovery at 1440 min, 0.2 mg/mL [2] [%] | Stability pH4: % Test Compound after 4 h [F(t = 4 h) × 100/F(t = 0 h)] [2] [%] | Stability pH7.4: % Test Compound after 4 h [F(t = 4 h) × 100/F(t = 0 h)] [2] [%]
1 | CCOc1cc(F)c(Cn2nc(-c3ncc(OCCCOC(=O)[C@H](C)NC(=O)[C@@H](N)CCCCN)c(Nc4ccnc(C(F)F)c4)n3)c3ccccc32)c(F)c1 [Example 4-1-1, 3-[(4-{[2-(difluoromethyl)pyridin-4-yl]amino}-2-[1-(4-ethoxy-2,6-difluorobenzyl)-1H-Indazol-3-yl]pyrimidin-5-yl)oxy]propyl L-lysyl-L-alaninate, salt with trifluoroaceticacid] | 1.4 | 1.5 | 1.4 | 1.5 | 1.3 | 1.5 | 2 | 76 | 57 | 32 | 0 | 100 | 32
2 | CCOc1cc(F)c(Cn2nc(-c3ncc(OCCCOC(=O)[C@H](C)NC(=O)[C@@H](N)CCCCN)c(Nc4ccnc(NC(C)=O)c4)n3)c3ccccc32)c(F)c1 [Example 4-1-2, 3-[(4-{[2-(acetylamino)pyridin-4-yl]amino}-2-[1-(4-ethoxy-2,6-difluorobenzyl)-1H-indazol-3-yl]pyrimidin-5-yl)oxy]propyl L-lysyl-L-alaninate, salt with trifiuoroaceticacid] | – | – | – | – | – | – | – | – | – | – | – | 100 | 30
3 | CCOc1cc(F)c(Cn2nc(-c3ncc(OCCCOC(=O)[C@H](C)NC(=O)[C@H](N)CCCCN)c(Nc4ccnc(NC(C)=O)c4)n3)c3ccccc32)c(F)c1 [Example 4-1-3, 3-[(4-{[2-(acetylamino)pyridin-4-yl]amino}-2-[1-(4-ethoxy-2,6-difluorobenzyl)-1H-indazol-3-yl]pyrimidin-5-yl)oxy]propyl D-lysyl-L-alaninate, salt with trifiuoroaceticacid] | 1.1 | 0.65 | 0.42 | 0.27 | 0.25 | 0.2 | 0.17 | 75 | 56 | 31 | 0 | 100 | 31
4 | CCOc1cc(F)c(Cn2nc(-c3ncc(OCCCOC(=O)[C@H](C)NC(=O)[C@@H](N)CCCNC(=N)N)c(Nc4ccnc(NC(C)=O)c4)n3)c3ccccc32)c(F)c1 [Example 4-1-4, 3-[(4-{[2-(acetylamino)pyridin-4-yl]amino}-2-[1-(4-ethoxy-2,6-difluorobenzyl)-1H-indazol-3-yl]pyrimidin-5-yl)oxy]propyl L-arginyl-L-alaninate, salt with trifiuoroaceticacid] | 2.8 | 0.58 | 0.61 | 0.55 | 0.54 | 0.32 | 0.33 | 86 | 73 | 53 | 3 | 100 | 53
5 | CCOc1cc(F)c(Cn2nc(-c3ncc(OCCCOC(=O)[C@H](C)NC(=O)[C@@H](N)CCCCN)c(Nc4ccncc4Cl)n3)c3ccccc32)c(F)c1 [Example 4-1-5, 3-({4-[(3-chloropyridin-4-yl)amino]-2-[1-(4-ethoxy-2,6-difluorobenzyl)-1H-indazol-3-yl]pyrimidin-5-yl}oxy)propyl L-lysyl-L-alaninate, salt with trifluoroaceticacid] | 1.5 | 0.82 | 0.6 | 0.51 | 0.46 | 0.27 | 0.25 | 81 | 65 | 42 | 0 | 101 | 42
6 | CCOc1cc(F)c(Cn2nc(-c3ncc(OCCCOC(=O)[C@H](C)NC(=O)[C@H](N)CCCCN)c(Nc4cc(C)ncc4C)n3)c3ccccc32)c(F)c1 [Example 4-1-6, 3-({4-[(2,5-dimethylpyridin-4-yl)amino]-2-[1-(4-ethoxy-2,6-difluorobenzyl)-1H-indazol-3-yl]pyrimidin-5-yl}oxy)propyl D-lysyl-L-alaninate, salt with trifluoroaceticacid] | – | – | – | – | – | – | – | – | – | – | – | 101 | 53
7 | CCOc1cc(F)c(Cn2nc(-c3ncc(OCCCOC(=O)[C@H](C)NC(=O)[C@@H](N)CCCCN)c(Nc4cc(C)ncc4C)n3)c3ccccc32)c(F)c1 [Example 4-1-7, 3-({4-[(2,5-dimethylpyridin-4-yl)amino]-2-[1-(4-ethoxy-2,6-difluorobenzyl)-1H-indazol-3-yl]pyrimidin-5-yl}oxy)propyl L-lysyl-L-alaninate, salt with trifluoroaceticacid] | – | – | – | – | – | – | – | – | – | – | – | 99 | 43
8 | CCOc1cc(F)c(Cn2nc(-c3ncc(OCCCOC(=O)[C@H](C)NC(=O)[C@@H](N)CCCNC(=N)N)c(Nc4ccncc4Cl)n3)c3ccccc32)c(F)c1 [Example 4-1-8, 3-({4-[(3-chloropyridin-4-yl)amino]-2-[1-(4-ethoxy-2,6-difluorobenzyl)-1H-indazol-3-yl]pyrimidin-5-yl}oxy)propyl L-arginyl-L-alaninate] | – | – | – | – | – | – | – | – | – | – | – | 100 | 56
9 | CCOc1cc(F)c(Cn2nc(-c3ncc(OCCCOC(=O)[C@@H](NC(=O)[C@@H](N)CCCCN)C(C)C)c(Nc4ccncc4Cl)n3)c3ccccc32)c(F)c1 [Example 4-1-9, 3-({4-[(3-chloropyridin-4-yl)amino]-2-[1-(4-ethoxy-2,6-difluorobenzyl)-1H-indazol-3-yl]pyrimidin-5-yl}oxy)propyl L-lysyl-L-valinate] | – | – | – | – | – | – | – | – | – | – | – | 99 | 99
